From PubChem BioAssay (NCI)
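A five-concentration, 48-hour dose response in 96-well plates underlies each endpoint, interpolated linearly between surrounding concentrations. Here, GI50 denotes the concentration required for 50% inhibition of growth. The concentration for full growth arrest is given as TGI.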

Tests used:
Test in all cases: growth of human tumour cells (NCI), 48 h
[1] = system: A549 NSCLC
[2] = system: CAKI-1 renal
[3] = system: HCC-2998 colon
[4] = system: RXF 393 renal
[5] = system: SF-295 CNS
[6] = system: SK-MEL-2 melanoma
[7] = system: SK-MEL-28 melanoma
[8] = system: SNB-75 CNS
[9] = system: UACC-62 melanoma
[10] = system: NCI/ADR-RES ovarian

Row | Structure (SMILES) | TGI [1] [µM] | TGI [2] [µM] | TGI [3] [µM] | TGI [4] [µM] | TGI [5] [µM] | TGI [6] [µM] | TGI [7] [µM] | TGI [8] [µM] | TGI [9] [µM] | TGI [10] [µM] | GI50 [1] [µM] | GI50 [2] [µM] | GI50 [10] [µM] | GI50 [4] [nM] | GI50 [5] [µM] | GI50 [6] [µM] | GI50 [7] [µM] | GI50 [9] [µM] | GI50 [3] [nM] | GI50 [8] [nM]
1 | C/C=C(/C)c1cnc(CC(C)C)c(=O)[nH]1 | > 100 | > 100 | > 100 | > 100 | > 100 | > 100 | > 100 | > 100 | > 100 |  |  |  |  |  |  |  |  |  |  | 
2 | Nc1ccc(C(=O)CC2(O)C(=O)Nc3c(Cl)cc(Cl)cc32)cc1 (centres undefined) | > 100 |  | > 100 | > 100 | > 100 | > 100 | > 100 | > 100 |  |  |  |  |  |  |  |  |  |  |  | 
3 | COc1ccc(N2C(=O)C3c4[nH]c5ccccc5c4C4CCCCCCC4C3C2=O)cc1 (centres undefined) | 22.8 | 39.5 | > 100 |  | 26 | > 69.8 | 42 | 27.8 | 39.2 |  |  |  |  |  |  |  |  |  |  | 
4 | CCOC(=O)c1c(-c2ccccc2)c(C(OC(c2ccccc2)c2c(-c3ccccc3)c(C(=O)OCC)n3ccccc23)c2ccccc2)c2ccccn12 (centres undefined) | > 100 | > 100 | > 100 | > 100 | > 100 | > 100 | > 100 | > 100 | > 100 |  |  |  |  |  |  |  |  |  |  | 
5 | COc1cc(C2c3cc4c(cc3[C@@H](N(C)C)[C@H]3COC(=O)C23)OCO4)cc(OC)c1O (some centres undefined) | > 100 | 99 | > 100 | > 100 |  | > 100 | > 100 | > 100 | > 100 |  |  |  |  |  |  |  |  |  |  | 
6 | COc1ccccc1NC(=O)C1=C(C)NC(C)=C(C(=O)Nc2ccccc2OC)C1c1ccc(N(C)C)cc1 | > 100 | 89.1 | 38.2 | 68.6 | > 100 | 48.2 | 58 | 80.6 |  |  |  |  |  |  |  |  |  |  |  | 
7 | COC(=O)C1Cc2c([nH]c3ccccc23)C(c2ccccc2O)N1Cc1ccccc1 (centres undefined) | > 46.4 | 34.5 | > 31.6 | 61.7 | 42.6 | > 31.6 | > 31.6 | 18.8 | 33.1 |  |  |  |  |  |  |  |  |  |  | 
8 | CC1=NOC(=O)C1N=Nc1ccc(Br)c(C)c1 (centres undefined) | 46 | 30.8 | 60.6 | 43.1 | 66.4 | 30.7 | 48.7 | 60.5 | 37.7 |  |  |  |  |  |  |  |  |  |  | 
9 | Clc1ccc2ns[s+]c2c1 | > 100 | > 100 | > 100 | > 100 | > 100 | > 82.5 | > 100 | > 100 | > 100 |  |  |  |  |  |  |  |  |  |  | 
10 | NNS(=O)(=O)c1cc(C(=O)O)cc(C(=O)O)c1 | > 100 | > 100 |  | > 100 | > 100 | > 100 | > 100 |  | > 100 | > 100 |  |  |  |  |  |  |  |  |  | 
11 | CN1C(=O)C2C=CC1C1CCC2N(C)C1=O (centres undefined) | > 100 | > 100 | > 100 | > 100 | > 100 | > 100 | > 100 | > 100 | > 100 |  |  |  |  |  |  |  |  |  |  | 
12 | COC(=O)[C@]1(C)C(OC)=CC(=O)C2C1[C@H]1CCC[C@@H]21 (some centres undefined) | > 100 | > 100 | > 100 | > 100 | > 100 | > 100 | > 100 | > 100 | > 100 |  |  |  |  |  |  |  |  |  |  | 
13 | COC(=O)c1ccc(CN2C(=O)C(Cl)=C(Nc3ccc(OC)c(Cl)c3)C2=O)cc1 | > 50 | > 50 |  | 26.1 | > 50 | > 50 | 30.7 |  | 21.1 | 30.9 | 26.2 | 17.3 | 12.7 | 11200 | 20.4 | 20.5 | 8.48 | 7.32 |  | 
14 | COC(=O)C(CC(=O)c1c[nH]c2ccccc12)c1c[nH]c2ccccc12 (centres undefined) | 60.1 | 70.8 | 45.5 | 28 | > 10 | 44.2 | 42.1 | 58 | > 10 |  |  |  |  |  |  |  |  |  |  | 
15 | Clc1ccc2c(c1)[nH]c1c2nc2sccn21 | > 100 | > 100 | > 100 | > 100 | > 100 | > 100 | > 100 | > 100 | > 100 |  |  |  |  |  |  |  |  |  |  | 
16 | COc1cc(/C=C/c2ccc(OC)c(OC)c2OC)cc(OC)c1OC | > 88.9 | > 96.4 | 18.6 | 46.3 | 55.7 | 36.1 | 37.7 | 56.7 | 28.1 |  |  |  |  |  |  |  |  |  |  | 
17 | O=C(N/N=C/c1ccc(Cl)cc1)c1[nH]c2ccc(Cl)cc2c1-c1ccccc1 | 29.3 | 0.645 | 15.5 | 1.51 | 2.58 | 35.5 | > 68.1 | > 51.2 | > 52.5 |  | 0.348 | 0.185 |  | 123 | 0.0815 | 0.332 | 2.77 | 0.191 | 326 | 1020
18 | ClCc1ccc(C2OCCO2)cc1 | > 80.7 |  | 32 | > 62 | 35.5 | 42.2 | > 58.6 | 52.5 | > 52 |  |  |  |  |  |  |  |  |  |  | 
19 | CC[C@H](Nc1nc(N)nc(C2CC2)c1C#N)c1nc2cccc(NCc3ccc(C(=O)NO)cc3)c2c(=O)n1-c1ccccc1 | 4.52 | 3.38 | 5 | 1.99 |  | 6.75 | 7.44 | 5.43 |  | 15.6 | 1.93 | 1.5 | 3.31 | 582 |  | 2.44 | 2.67 |  | 1950 | 1570
20 | COc1cc(C2c3cc4c(cc3[C@@H](OCCN(C)C)C3COC(=O)[C@H]23)OCO4)cc(OC)c1O (some centres undefined) |  | 1.33 |  | 1.97 | 0.998 | 4.03 | 4.1 | 3.75 | 1.38 |  |  |  |  |  |  |  |  |  |  | 
21 | O=c1cc(-c2ccccn2)[nH]c2cc(F)ccc12 | > 100 |  | > 100 | > 100 | > 100 |  | > 100 | > 100 | > 100 |  |  |  |  |  |  |  |  |  |  | 
22 | COc1cc2c3c(ncc2c(OC)c1OC)-c1cc2c(cc1C3)OCO2 | > 100 | > 100 | > 100 |  | > 100 | 45.3 | > 100 | > 100 | 65.9 | > 100 | 82.9 | 42.5 | 36.9 |  | 29.8 | 11.7 | 39.1 | 22.4 | > 100000 | > 100000
